Like-named read-outs stand apart in the source and are kept apart here.
Key:
KB-V1 (MDR1++) = assay: Cell survival assay (SRB), KB-V1 (MDR1++); details: for IC50: Homo sapiens
KB-8-5 (MDR1+) = assay: Cell survival assay (SRB), KB-8-5 (MDR1+); details: for IC50: Homo sapiens, MDR1, read-out: In vitro IC50 (nM) KB85
KB-3-1 = assay: Cell survival assay (SRB), KB-3-1; assay type: cell-based, human; details: Homo sapiens, read-out: In vitro IC50 (nM) KB-3-1
Source text: Cells lines with previously known mechanisms of resistance. […] Res. 8: 207-218,1996); KB-3-1 (parental derived from an epidermoid carcinoma), KB-8.5, KB-V1 (Akiyama S-I, Fojo A, Hanover J A, Pastan I, Gottesman M M. Isolation and genetic characterization of human KB cell lines resistant to multiple drugs. Somatic Cell Mol. Gen., 11: 117-126,1985; Shen D-W, Cardarelli C, Hwang J, Cornwell M, Richert N, Ishii S, Pastan I, Gottesman MM. […] J. Biol. Chem., 261: 7762-7770, 1986); and HL-60 (parental derived from human leukemia) and HL60/AR (McGrath T., Center M. S. Adriamycin resistance in HL60 cells in the absence of detectable P-glycoprotein. Biochem. Res. Commun., 145:1171-1176,1987); A549 and A549.EpoB40 (He L., Yang C.-P.H., Horwitz S. B. Mutations in p-tubulin map to domains involved in regulation of microtubule stability in epothilone-resistant cell lines. Molecular Cancer Therapeutics. 1: 3-10, 2001). HCT-15 human colon carcinoma and DLD-1 human colon carcinoma are obtained from American Tissue Culture Collection. The MX-1W carcinoma is a Wyeth variant orginally obtained as MX-1 breast carcinoma from the National Cancer Institute. Cell lines selected for resistance to Representative Example 129. KB-3-1 cells are selected for resistance to Example 129 by chronically exposing cells to increasing concentrations of Example 129.
2.2. Cell Survival Assay: Standard Pharmacological Test Procedure. The concentration of candidate inhibitor required to inhibit 50% of cell growth (IC50) is done according to previously reported methods. […] Compounds are serially diluted into media as 2× stocks and 100 μl added to cells in duplicate. Compounds are incubated with cells for 3 days. At the end of the incubation period the sulforhodamine B (SRB) assay, which measures protein content as an assessment of cell survival, is performed as described previously (Skehan P, Storeng R, Scudiero D, Monks A, McMahon J, Vistica D, Warren J T, Bokesch H, Kenney S, Boyd MR. New calorimetric cytotoxicity assay for anticancer-drug screening. J Natl Cancer Inst 1990 Jul 4;82(13):1107-12) with some modification as follows. For KB-3-1 cells with 20% FCS, media is gently decanted and replaced with 200 μl of serum-free media mixed with cold 50% TCA for a final concentration of 10% TCA. The plates are incubated for 1 hr at 4° C., followed by washing 5 times in cold distilled water, then air dried overnight. The fixed cells are stained for 10 min with 80 μl of 0.04% SRB solution prepared in 1% glacial acetic acid. Stain is discarded and plates washed 5 times in 1% glacial acetic acid, then air-dried until completely dry. Stained cell product is dissolved in 150 μl of 10 mM Trizma Base and placed on a shaker for 20 minutes until fully dissolved. Absorbance is read on a Victor V multi-label plate reader (Perkin Elmer, Gaithersburg, Md.).

[1] = KB 3-1, KB-3-1 cells (paclitaxel-sensitive parent)
[2] = read-out: In vitro IC50 (nM) KBV1

Compound | IC50 (KB-V1 (MDR1++); read-out: In vitro IC50 KBV1) [nM] | Ratio KB85/KB (KB-8-5 (MDR1+)) | IC50 (KB-8-5 (MDR1+)) [nM] | IC50 (KB-3-1; [1]) [nM] | Ratio KBV1/KB (KB-V1 (MDR1++)) | IC50 (KB-V1 (MDR1++); [2]) [nM] | Ratio KBV1/KB (KB-V1 (MDR1++); ratio of IC50 in KBV1 to IC50 in KB-3-1) | Ratio KB85/KB (KB-8-5 (MDR1+); ratio of IC50 in KB85 to IC50 in KB-3-1) | IC50 (KB-3-1; KB-3-1 cells (paclitaxel-sensitive parent)) [nM]
C=CC[C@@H](/C=C(\C)C(=O)O)N(C)C(=O)[C@@H](NC(=O)[C@@H](NC)C(C)(C)c1ccccc1)C(C)(C)C [Example 119, N,β,β-trimethyl-L-phenylalanyl-N^1-[(1S,2E)-1-allyl-3-carboxybut-2-enyl]-N^1,3-dimethyl-L-valinamide] | > 3000 | 3.0 | 164 | 55 | – | – | – | – | –
C=CC(C)(C)[C@H](NC)C(=O)N[C@H](C(=O)N(C)[C@H](/C=C(\C)C(=O)O)C(C)C)C(C)(C)C [Example 121, (2E, 4S)-4-[((2S)-2-{[3,3-dimethyl-2-(methylamino)-4-pentenoyl]amino}-3,3-dimethylbutanoyl)(methyl)amino]-2,5-dimethyl-2-hexenoic Acid] | – | 1.4 | 186 | 136 | 22.0 | ≥ 3000 | – | – | –
CCC(CC)(c1ccccc1)[C@H](NC)C(=O)N[C@H](C(=O)N(C)[C@H](/C=C(\C)C(=O)O)C(C)C)C(C)(C)C [Example 125, β,β-diethyl-N-methyl-L-phenylalanyl-N^1-[(1S,2E)-3-carboxy-1-isopropylbut-2-enyl]-N^1,3-dimethyl-L-valinamide] | – | 2.1 | 18 | 8.5 | 56.4 | 479 | – | – | –
CN[C@H](C(=O)N[C@@H](C(=O)N(C)[C@H](/C=C(\C)C(=O)O)C(C)C)C(C)C)C(C)(C)c1ccccc1 [Example 131, N,β,β-trimethyl-L-phenylalanyl-N^1-[(1S,2E)-3-carboxy-1-isopropylbut-2-enyl]-N^1-methyl-D-valinamide] | – | 2.0 | 12 | 6 | 512.8 | ≥ 3000 | – | – | –
CN[C@@H](C(=O)N[C@H](C(=O)N(C)[C@H](/C=C(\C)C(=O)O)C(C)C)C(C)(C)C)C(C)(C)c1cc(C(F)(F)F)cc(C(F)(F)F)c1 [Example 67, N,β,β-trimethyl-3,5-bis(trifluoromethyl)-D-phenylalanyl-N^1-[(1S,2E)-3-carboxy-1-isopropylbut-2-enyl]-N^1,3-dimethyl-L-valinamide] | > 3000 | 1.1 | 186 | 170 | – | – | – | – | –
CN[C@H](C(=O)N[C@H](C(=O)N(C)[C@H](/C=C(\C)C(=O)O)C(C)C)C(C)(C)c1ccc(C(=O)c2ccccc2)cc1)C(C)(C)c1ccccc1 [Example 90, N,β,β-trimethyl-L-phenylalanyl-4-benzoyl-N-[(1S,2E)-3-carboxy-1-isopropyl-2-butenyl]-N,β,β-trimethyl-L-phenylalaninamide] | – | 4.3 | 96.9 | 22.4 | 133.9 | ≥ 3000 | – | – | –
CN[C@@H](C(=O)N[C@H](C(=O)N(C)[C@H](/C=C(\C)C(=O)O)C(C)C)C(C)(C)C)C(C)(C)c1cccc(F)c1 [Example 61, 3-Fluoro-N,β,β-trimethyl-D-phenylalanyl-N^1-[(1S,2E)-3-carboxy-1-isopropyl-2-butenyl]-N^1,3-dimethyl-L-valinamide] | – | 1.5 | 18.6 | 12.6 | 79.4 | 1000 | – | – | –
CCOC(=O)/C(C)=C/[C@H](C(C)C)N(C)C(=O)[C@@H](NC(=O)[C@H](NC)C(C)(C)c1ccc(C)cc1)C(C)(C)C [Example 10b, N,β,β,4-tetramethyl-D-phenylalanyl-N^1-[(1S,2E)-4-ethoxy-1-isopropyl-3-methyl-4-oxo-2-butenyl]-N^1,3-dimethyl-L-valinamide] | – | 3.9 | 1740 | 447 | 6.7 | ≥ 3000 | – | – | –
CN[C@H](C(=O)N[C@@H](CC(C)C)C(=O)N(C)[C@H](/C=C(\C)C(=O)O)C(C)C)C(C)(C)c1ccccc1.O=C(O)C(F)(F)F [Example 96, N,β,β-trimethyl-L-phenylalanyl-N^1-[(1S,2E)-3-carboxy-1-isopropylbut-2-enyl]-N^1-methyl-L-leucinamide Trifluoroacetic Acid] | – | 1.6 | 30 | 19 | 76.1 | 1440 | – | – | –
CN[C@H](C(=O)N[C@H](C(=O)N(C)[C@H](/C=C(\C)C(=O)O)C(C)C)C(C)(C)SCc1ccc(OC)cc1)C(C)(C)c1ccccc1 [Example 82, N,β,β-trimethyl-L-phenylalanyl-N^1-[(1S,2E)-3-carboxy-1-isopropyl-2-butenyl]-3-[(4-methoxybenzyl)sulfanyl]-N^1-methyl-L-valinamide] | – | 1.7 | 100 | 59 | 40.1 | 2360 | – | – | –
CC(C)C[C@H](N)C(=O)N[C@H](C(=O)N[C@H](CC(C)C(=O)O)C(C)C)C(C)(C)C (stereo partly drawn) [Example 138, (4R)4-[((2S)-2-{[(2S)-2-amino4-methylpentanoyl]amino}-3,3-dimethylbutanoyl)amino]-2,5-dimethylhexanoic Acid] | – | – | 1510 | – | – | ≥ 3000 | 4.3 | 2.2 | 692
CCN(C(=O)[C@@H](NC(=O)[C@@H](NC)C(C)(C)c1ccccc1)C(C)(C)C)[C@H](/C=C(\C)C(=O)O)C(C)C.O=C(O)C(F)(F)F [Example 94, N,β,β-trimethyl-L-phenylalanyl-N^1-[(1S,2E)-3-carboxy-1-isopropylbut-2-enyl]-N^1-ethyl-3-methyl-L-valinamide Trifluoroacetic Acid] | – | 1.8 | 197 | 109 | 27.5 | ≥ 3000 | – | – | –
CN[C@H](C(=O)N[C@H](C(=O)N(C)[C@H](/C=C(\C)C(=O)O)C(C)C)C(C)(C)C)C(C)(C)c1cccc(F)c1 [Example 60, 3-Fluoro-N,β,β-trimethyl-L-phenylalanyl-N^1-[(1S,2E)-3-carboxy-1-isopropyl-2-butenyl]-N^1,3-dimethyl-L-valinamide] | – | 1.8 | 1.8 | 0.997 | 77.4 | 77 | – | – | –
C/C(=C\[C@H](C(C)C)N(C)C(=O)[C@@H](NC(=O)[C@@H](NCCO)C(C)(C)c1ccccc1)C(C)(C)C)C(=O)O [Example 153, N-(2-hydroxyethyl)-β,β-dimethyl-L-phenylalanyl-N^1-[(1S,2E)-3-carboxy-1-isopropylbut-2-enyl]-N^1,3-dimethyl-L-valinamide] | – | 3.4 | 616 | 183 | 16.4 | > 3000 | – | – | –
CN[C@H](C(=O)N[C@H](C(=O)N(C)[C@H](/C=C(\C)C(=O)O)CC(C)C)C(C)(C)C)C(C)(C)c1ccccc1 [Example 92, 4-{[3,3-Dimethyl-2-(3-methyl-2-methylamino-3-phenyl-butyrylamino)-butyryl]-methyl-amino}-2,6-dimethyl-hept-2-enoic Acid] | – | 2.1 | 264 | 126 | 23.9 | ≥ 3000 | – | – | –
C/C(=C\[C@H](C(C)C)N(C)C(=O)[C@@H](NC(=O)[C@@H](N)Cc1cccc2ccccc12)C(C)(C)C)C(=O)O [Example 130, (2E,4S)-4-[((2S)-2-{[(2S)-2-Amino-3-(1-naphthyl)propanoyl]amino}-3,3-dimethylbutanoyl)(methyl)amino]-2,5-dimethyl-2-hexenoic Acid] | – | 1.4 | 87 | 60.2 | 49.8 | ≥ 3000 | – | – | –
